Key:
[1] = tested on: MCF7 cells; assay: Cell proliferation assay, MTT method; format: cell-based, human; conditions: 72 h
Excerpt: DNA replication precedes cell division. Thus, cancer cells cannot divide and proliferate without successful chromosomal duplication. A DNA polymerase inhibitor should inhibit cancer cell proliferation. We characterized the antiproliferative properties of zelpolib on a number of cell lines originated from pancreatic cancer (BxPC-3) and breast cancer (MCF7 for ER+ breast cancer). In addition, we developed a cisplatin resistant subline of a pancreatic cancer cell line, R-BxPC3 for our studies as well. We used the MTT method^25 for analyzing cell proliferation. This assay is based on the reduction of 3-(4,5-dimethylthiazol-2-yl)-2,5-diphenyltetrazolium bromide by live cells to an insoluble formazon, which were subsequently dissolved in DMSO and quantified by UV absorbance. Therefore, the cell number is proportional to the optical density in the established linear region. […] The plateau phenomena indicate inhibition of proliferation without cell killing, similar to these observed from hydroxyurea^26, aphidicolin^27, and to a certain extent, methotrexate treatments^28. Direct inhibition of DNA polymerase activity provides a unique mechanism that is not employed by any of the current cancer therapeutics. We selected a number of most widely prescribed chemotherapeutics with distinct mechanisms to compare their antiproliferative potential in the 2 cancer cell lines. We included alkylating agent cisplatin, antimetabolites methotrexate and 5-flourouracil (5FU)^29-31. […] Whereas the comparison with cisplatin is biphasic.
(§1) Human cancer cells (5×10^3-7.5×10^3) were initially seeded in 96-well plates (Cellstar) containing 0.2 ml media per well. After 24 hrs, these cells were treated with variable concentrations drug combinations for 48-72 hrs. Subsequently, 4,5-dimethylthiazol-2-yl-2,5-diphenyltetrazolium bromide (MTT) (20 μl of 5 mg/ml) was added to each well for 3 hrs. Formazan crystals were then dissolved in 150 μl DMSO and optical density was read at 490 nm^25. All experiments were performed in triplicates. Results were analyzed by GraphPad Prism. Data represent mean value±SEM for each concentration of inhibitor combinations.

[2] = tested on: HCC1395 cells; assay: MTT assay with PARP inhibitors with or without zelpolib; format: cell-based, human; conditions: for sensitivity of HCC1395 cells to the PARP inhibitor alone: HR-proficient triple-negative breast cancer cell line
Protocol: However, there have been minimal clinical benefits for HR-proficient cancers^37-41. Since zelpolib can inhibit HR, we explored the effect of zelpolib in combination with PARP inhibitors on HR-proficient cancer cells. The hypothesis is that zelpolib will lead to an HR-defect through inhibition of Pol δ and render HR-proficient cells sensitive to PARP inhibition. […] The cells were treated with increasing concentrations of PARP inhibitor Niraparib (FIG. 5B) or Rucaparib (FIG. 5C) in the absence or presence of 2.5 μM zelpolib for 48 hrs. The number of cells were then analyzed by MTT assay.
as §1

[3] = tested on: BRCA1/2 mutant population; conditions: maintenance therapy; cited from earlier work

## N.N.[Cl][Pt][Cl] [cisplatin, reference compound]
[1]
  antiproliferative activity, zelpolib versus cisplatin: more effective beyond 5 μM

## NC(=O)c1cccc2cn(-c3ccc([C@@H]4CCCNC4)cc3)nc12 [Niraparib]
[2]; HCC1395 proliferation, 48 hrs
  Niraparib concentration with 2.5 μM zelpolib that achieves the effect of 25 μM Niraparib alone: 5 µM
[2]
  sensitivity of HCC1395 cells to the PARP inhibitor alone: insensitive

## O=C(c1cc(Cc2n[nH]c(=O)c3ccccc23)ccc1F)N1CCN(C(=O)C2CC2)CC1 [olaparib]
[3]
  hazard ratio in progression-free survival: 0.18
  reduction in the risk of progression or death: 82%

## CNCc1ccc(-c2[nH]c3cc(F)cc4c3c2CCNC4=O)cc1 [Rucaparib]
[2]
  sensitivity of HCC1395 cells to the PARP inhibitor alone: insensitive

Reference: patent publication US11324720B2, “Antiproliferative DNA polymerase inhibitor” (NEW YORK MEDICAL COLLEGE, priority 2018, dated 2022)
